The source of these data is ChEMBL document CHEMBL1268886, “Evaluation of amide replacements in CCR5 antagonists as a means to increase intrinsic permeability. Part 2: SAR optimization and pharmacokinetic profile of a homologous azacyle series” (Bioorg Med Chem Lett, 2010).

The target of data set [1] is C-C chemokine receptor type 5 (Homo sapiens, UniProt P51681). Description: Inhibition of RANTES.
For data set [2], the system named is Human immunodeficiency virus. Description: Antiviral activity against HIV. In kind it is functional, organism-based.
Data set [3] can be described thus: (§1) Apparent permeability of the compound from apical to basolateral side in human Caco-2 cell membrane after 21 days. The following applies: Caco-2, Papp.
A further data set deals with Caco-2. The description is as §1. The note with it: caco-2.
A short description of data set [4]: Metabolic stability in human liver microsomes assessed as intrinsic clearance. In kind it is ADME, Microsome. (In general: Microsomes from liver hold many membrane-bound enzymes, among them those of drug oxidation.)
The nature of data set [5]: Cmax in dog at 5 mg/kg, po and 1 mg/kg, iv. The following applies: in vivo. In kind it is ADME, organism-based, Canis lupus familiaris.
Data set [6] is described as follows: Clearance in dog at 5 mg/kg, po and 1 mg/kg, iv. Type of data set: ADME, organism-based, Canis lupus familiaris. The note with it: in vivo.
Data set [7] can be described thus: Metabolic stability in rat liver microsomes assessed as intrinsic clearance. In kind it is ADME, Microsome.
A short description of data set [8]: Half life in rat at 1 mg/kg, iv. The arrangement: dose 1 mg/kg, route intravenous. Type of data set: ADME, organism-based. The following applies: in vivo.
For data set [9], the target named is Voltage-gated inwardly rectifying potassium channel KCNH2 (Homo sapiens, UniProt Q12809). Description: Inhibition of human ERG.
Voltage-gated inwardly rectifying potassium channel KCNH2, sequence (Q12809 whole entry): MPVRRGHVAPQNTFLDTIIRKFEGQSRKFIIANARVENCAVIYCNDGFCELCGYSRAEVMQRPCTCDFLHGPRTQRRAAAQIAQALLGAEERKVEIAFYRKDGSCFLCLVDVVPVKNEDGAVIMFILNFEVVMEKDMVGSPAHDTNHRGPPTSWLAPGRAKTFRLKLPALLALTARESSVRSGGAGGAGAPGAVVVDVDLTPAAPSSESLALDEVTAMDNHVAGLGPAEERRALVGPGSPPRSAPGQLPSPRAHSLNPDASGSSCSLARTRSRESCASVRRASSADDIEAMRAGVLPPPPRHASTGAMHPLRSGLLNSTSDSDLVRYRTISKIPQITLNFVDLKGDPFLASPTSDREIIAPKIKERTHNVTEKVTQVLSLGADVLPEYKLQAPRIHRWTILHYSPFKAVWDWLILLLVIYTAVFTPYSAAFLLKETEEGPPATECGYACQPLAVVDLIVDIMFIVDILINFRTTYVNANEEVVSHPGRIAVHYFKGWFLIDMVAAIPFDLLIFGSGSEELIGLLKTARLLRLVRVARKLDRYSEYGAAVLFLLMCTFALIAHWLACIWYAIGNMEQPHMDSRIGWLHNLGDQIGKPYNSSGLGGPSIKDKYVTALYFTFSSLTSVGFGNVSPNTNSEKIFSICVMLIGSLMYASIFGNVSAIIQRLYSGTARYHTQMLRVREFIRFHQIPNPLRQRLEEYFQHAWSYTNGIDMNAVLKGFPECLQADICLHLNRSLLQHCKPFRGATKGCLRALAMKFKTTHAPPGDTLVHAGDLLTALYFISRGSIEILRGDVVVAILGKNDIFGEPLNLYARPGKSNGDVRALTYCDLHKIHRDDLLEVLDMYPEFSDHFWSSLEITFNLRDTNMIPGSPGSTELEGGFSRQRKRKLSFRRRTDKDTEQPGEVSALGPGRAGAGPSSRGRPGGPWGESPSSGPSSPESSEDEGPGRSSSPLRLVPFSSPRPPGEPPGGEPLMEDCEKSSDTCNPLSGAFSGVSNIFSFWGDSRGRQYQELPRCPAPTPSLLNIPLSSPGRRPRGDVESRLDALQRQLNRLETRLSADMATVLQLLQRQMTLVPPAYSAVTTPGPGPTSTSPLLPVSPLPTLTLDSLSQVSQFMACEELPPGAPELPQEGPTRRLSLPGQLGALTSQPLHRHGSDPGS
The nature of data set [10]: Half life in dog at 1 mg/kg, iv. Type of data set: ADME, organism-based, Canis lupus familiaris. The arrangement: dose 1 mg/kg, route intravenous. The following applies: in vivo.
The nature of data set [11]: Oral bioavailability in rat at 10 mg/kg, po and 1 mg/kg, iv. Type of data set: ADME, organism-based. The note with it: in vivo.
The nature of data set [12]: Oral bioavailability in dog at 5 mg/kg, po and 1 mg/kg, iv. In kind it is ADME, organism-based, Canis lupus familiaris. The note with it: in vivo.
The test system of the next data set is Rattus norvegicus. Description: Clearance in rat at 10 mg/kg, po and 1 mg/kg, iv. In kind it is ADME, organism-based. The note with it: in vivo.
Data set [13] is described as follows: Metabolic stability in dog liver microsomes assessed as intrinsic clearance. Type of data set: ADME, Canis lupus familiaris, Microsome.
Data set [14] in a line: Cmax in rat at 10 mg/kg, po and 1 mg/kg, iv. Type of data set: ADME, organism-based. The following applies: in vivo.

Bounds are passed on as bounds.

C-C chemokine receptor type 5, sequence (P51681 whole entry): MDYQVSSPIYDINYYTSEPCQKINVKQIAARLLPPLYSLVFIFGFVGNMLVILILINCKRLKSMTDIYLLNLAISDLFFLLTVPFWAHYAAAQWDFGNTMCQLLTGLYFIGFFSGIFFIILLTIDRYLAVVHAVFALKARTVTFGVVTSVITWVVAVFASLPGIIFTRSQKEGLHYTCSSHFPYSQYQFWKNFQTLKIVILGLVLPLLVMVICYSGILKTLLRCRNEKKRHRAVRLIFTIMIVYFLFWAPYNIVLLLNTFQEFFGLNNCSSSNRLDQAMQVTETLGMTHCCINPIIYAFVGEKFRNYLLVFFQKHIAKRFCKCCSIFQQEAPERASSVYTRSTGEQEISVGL

In general, IC50 refers to the midpoint of a concentration-inhibition curve. High values mean lower potency, low ones higher potency. `Cc1ncnc(C)c1C(=O)N1C[C@H]2CN(CCC(c3ccccc3)C3CN(C(=O)CC(C)C)C3)C[C@H]2C1` (stereo not given in full) returned an IC50 in [1] of over 500 nM.
On the same count and under the same terms, under `COC(=O)N1CCC(C(CCN2C[C@@H]3CN(C(=O)c4c(C)ncnc4C)C[C@@H]3C2)c2ccccc2)CC1` (stereo not given in full) stands 102 nM; under `Cc1ncnc(C)c1C(=O)N1C[C@H]2CN(CCC(c3ccccc3)C3CN(C(=O)C4CCCC4)C3)C[C@H]2C1` (stereo not given in full), 207 nM; under `Cc1ncnc(C)c1C(=O)N1C[C@H]2CN(CCC(c3ccccc3)C3CCN(C(=O)NC(C)C)CC3)C[C@H]2C1` (stereo not given in full), over 500 nM.
In the case of `Cc1ncnc(C)c1C(=O)N1C[C@H]2CN(CCC(c3ccccc3)C3CCN(S(=O)(=O)CC(F)(F)F)CC3)C[C@H]2C1` (stereo not given in full), the concentration for half-maximal inhibition (IC50) is 207 nM in [2] (Human immunodeficiency virus 1) and 48 nM in data set [1].
What is called Papp A→B is the apparent permeability from the apical to the basolateral side of a cell layer. For the compound `Cc1ncnc(C)c1C(=O)N1C[C@H]2CN(CCC(c3ccccc3)C3CCN(S(C)(=O)=O)CC3)C[C@H]2C1` (stereo in doubt; 34), the IC50 in [2] was found to be 43 nM; in data set [1] it was 34 nM. In addition, in [3], the Papp A→B came out at 0.87 ×10⁻⁶ cm/s.
As for `Cc1ncnc(C)c1C(=O)N1C[C@H]2CN(CCC(c3ccccc3)C3CN(S(=O)(=O)C(C)C)C3)C[C@H]2C1` (stereo not given in full), the IC50 stood at 100 nM in data set [2] (Human immunodeficiency virus 1) and 23 nM in [1].
Consider `Cc1ncnc(C)c1C(=O)N1C[C@H]2CN(CCC(c3ccccc3)C3CN(CC(F)(F)F)C3)C[C@H]2C1` (stereo not given in full), for which the IC50 in data set [1] was over 500 nM.
For `Cc1ncnc(C)c1C(=O)N1C[C@H]2CN(CCC(c3cccc(F)c3)C3CCN(CC(F)F)CC3)C[C@H]2C1` (stereo not given in full), the IC50 in data set [2] (Human immunodeficiency virus 1) was 14 nM; in data set [1], 35 nM.
As for `Cc1ncnc(C)c1C(=O)N1C[C@H]2CN(CCC(c3cccc(F)c3)C3CN(S(=O)(=O)C4CC4)C3)C[C@H]2C1` (stereo not given in full), the figures for the IC50 in data set [2] (Human immunodeficiency virus 1) and in data set [1] were 156 nM and 39 nM, respectively.
Taken in the same sequence, the figures for `Cc1ncnc(C)c1C(=O)N1C[C@H]2CN(CCC(c3ccccc3)C3CN(S(C)(=O)=O)C3)C[C@H]2C1` (stereo not given in full) were over 625 nM and 52 nM.
Taken in the same sequence, the figures for `Cc1ncnc(C)c1C(=O)N1C[C@H]2CN(CCC(c3ccccc3)C3CCN(CC(F)F)CC3)C[C@H]2C1` (stereo not given in full) were 55 nM and 27 nM.
In the same order, the values of `Cc1ncnc(C)c1C(=O)N1C[C@H]2CN(CCC(c3cccc(F)c3)C3CCN(S(=O)(=O)c4ccccc4)CC3)C[C@H]2C1` (stereo not given in full) are 6 nM and 38 nM.
In data set [1], `CCC(=O)N1CCC(C(CCN2C[C@@H]3CN(C(=O)c4c(C)ncnc4C)C[C@@H]3C2)c2ccccc2)CC1` (stereo not given in full) had an IC50 of 32 nM. This lies in the double-digit nanomolar range.
In the case of `Cc1ncnc(C)c1C(=O)N1C[C@H]2CN(CCC(c3ccccc3)C3CCN(S(C)(=O)=O)CC3)C[C@H]2C1` (stereo in doubt; 42), the IC50 is over 5000 nM in [2] and over 500 nM in [1].
The Papp is the rate of passage across a membrane or cell layer, normalised by area and donor concentration. Consider `Cc1ncnc(C)c1C(=O)N1C[C@H]2CN(CCC(c3ccccc3)C3CCN(S(C)(=O)=O)CC3)C[C@H]2C1` (stereo in doubt; 41), for which the IC50 is 42 nM in [2] and 25 nM in data set [1]. The Papp in the data set on Caco-2 was 0.5 ×10⁻⁶ cm/s.
For the compound `Cc1ncnc(C)c1C(=O)N1C[C@H]2CN(CCC(c3ccccc3)C3CN(S(=O)(=O)C4CC4)C3)C[C@H]2C1` (stereo not given in full), the IC50 in [2] (Human immunodeficiency virus 1) turned out to be 103 nM; in [1], 40 nM.
Taken in the same sequence, the figures for `Cc1cc(=O)oc(C)c1C(=O)N1C[C@H]2CN(CCC(c3ccccc3)C3CCN(S(C)(=O)=O)CC3)C[C@H]2C1` (stereo not given in full) were 37 nM and 27 nM.
Taken in the same sequence, the figures for `CCS(=O)(=O)N1CCC(C(CCN2C[C@@H]3CN(C(=O)c4c(C)ncnc4C)C[C@@H]3C2)c2ccccc2)CC1` (stereo not given in full) were 39 nM and 25 nM.
Taken in the same sequence, the figures for `Cc1ncnc(C)c1C(=O)N1C[C@H]2CN(CCC(c3ccccc3)C3CCN(S(=O)(=O)C4CC4)CC3)C[C@H]2C1` (stereo not given in full) were 71 nM and 27 nM.
On to `Cc1ncnc(C)c1C(=O)N1C[C@H]2CN(CCC(c3ccccc3)C3CCN(S(=O)(=O)C(C)C)CC3)C[C@H]2C1` (stereo not given in full), for which the IC50 turned out to be 48 nM in data set [2] (Human immunodeficiency virus 1) and 47 nM in [1].
Take `Cc1ncnc(C)c1C(=O)N1C[C@H]2CN(CCC(c3ccccc3)C3CCN(C(=O)CC(C)C)CC3)C[C@H]2C1` (stereo not given in full): in [1], the IC50 was determined as 68 nM.
For `Cc1ncnc(C)c1C(=O)N1C[C@H]2CN(CCC(c3ccccc3)C3CCN(S(=O)(=O)C4CCCC4)CC3)C[C@H]2C1` (stereo not given in full), the IC50 in data set [2] (Human immunodeficiency virus 1) stood at 59 nM; in data set [1], 23 nM.
In the same order, the values of `Cc1ncnc(C)c1C(=O)N1C[C@H]2CN(CCC(c3cc(F)cc(F)c3)C3CN(S(=O)(=O)C4CC4)C3)C[C@H]2C1` (stereo not given in full) are 90 nM and 35 nM.
In data set [1], `Cc1ncnc(C)c1C(=O)N1C[C@H]2CN(CCC(c3ccccc3)C3CCN(C(=O)C(C)C)CC3)C[C@H]2C1` (stereo not given in full) gave an IC50 of 72 nM.
Regarding `Cc1ncnc(C)c1C(=O)N1C[C@H]2CN(CCC(c3ccccc3)C3CN(S(=O)(=O)C4CCCC4)C3)C[C@H]2C1` (stereo not given in full), the IC50 was 31 nM in data set [2] (Human immunodeficiency virus 1) and 22 nM in data set [1]. Also, the Papp A→B in [3] worked out at 1.4 ×10⁻⁶ cm/s.
Take `Cc1ncnc(C)c1C(=O)N1C[C@H]2CN(CCC(c3cc(F)cc(F)c3)C3CCN(CC(F)F)CC3)C[C@H]2C1` (stereo not given in full): the 50% inhibitory concentration (IC50) in [2] (Human immunodeficiency virus 1) was found to be 20 nM; in data set [1], 25 nM.
Consider `Cc1ncnc(C)c1C(=O)N1C[C@H]2CN(CCC(c3cccc(F)c3)C3CCN(S(C)(=O)=O)CC3)C[C@H]2C1` (stereo in doubt; 44), for which the half-maximal inhibitory concentration (IC50) in data set [1] was over 500 nM.
For orientation: microsomal CLint means the rate of metabolic loss divided by the concentration. For orientation: Cmax means the peak of the concentration-time curve. A word on the half-life: it is how long it takes for the measured level to halve. Low readings indicate fast loss, high ones slow loss. The IC20 is the point of the concentration-response curve where the effect stands at 20%. Low values mean greater potency, high ones weaker potency. In general, bioavailability refers to the share of a dose that reaches the circulation, judged against a reference dose that is usually intravenous. Consider `Cc1ncnc(C)c1C(=O)N1C[C@H]2CN(CCC(c3cccc(F)c3)C3CCN(S(C)(=O)=O)CC3)C[C@H]2C1` (stereo in doubt; 43), for which the microsomal CLint in data set [4] was 60 µL/min/mg; in data set [7], 40 µL/min/mg. The Cmax in data set [5] amounted to 1300 ng/mL; in [14], 110 ng/mL. Moreover, the figures for the IC50 in data set [2] and in data set [1] were 17 nM and 32 nM, respectively. Moreover, the clearance worked out at 31 mL/min/kg in [6], 40 mL/min/kg in the data set on Rattus norvegicus and 18 µL/min/mg in [13]. Also, the Papp A→B in [3] was determined as 0.5 ×10⁻⁶ cm/s. For the same compound, the half-life in data set [8] is 0.37 h; in data set [10] it was 4 h. In data set [9], this compound gave an IC20 of 15400 nM. For the same compound, the figures for the bioavailability in data set [11] and in data set [12] were 6.6% and 96%, respectively.
As to `Cc1cc(C#N)nc(C)c1C(=O)N1C[C@H]2CN(CCC(c3ccccc3)C3CCN(S(C)(=O)=O)CC3)C[C@H]2C1` (stereo not given in full), the IC50 in data set [2] (Human immunodeficiency virus 1) amounted to 4 nM.
Regarding `Cc1ncnc(C)c1C(=O)N1C[C@H]2CN(CCC(c3cccc(F)c3)C3CCN(S(C)(=O)=O)CC3)C[C@H]2C1` (stereo in doubt; 35), the IC50 in [2] (Human immunodeficiency virus 1) was 16 nM; in [1] it was 44 nM.
As to `Cc1ncnc(C)c1C(=O)N1C[C@H]2CN(CCC(c3ccccc3)C3CCN(CC(F)(F)F)CC3)C[C@H]2C1` (stereo not given in full), the results for the IC50 in data set [2] (Human immunodeficiency virus 1) and in [1] were 64 nM and 17 nM, respectively.
